Our source for the inhibition and IC50 values is ChEMBL document CHEMBL5113460, “Discovery of dual inhibitors of topoisomerase I and Cyclooxygenase-2 for colon cancer therapy” (Eur J Med Chem, 2022).

The target in assay [1] is Prostaglandin G/H synthase 2 (Homo sapiens) (UniProt P35354). The assay is described as follows: Inhibition of COX-2 (unknown origin) at 3 uM.
For a further assay, the system named is HCT-116. The assay can be described thus: Antitumor activity against human HCT-116 cells assessed as inhibition of cell proliferation incubated for 72 hrs by MTT assay. It counts as functional, cell-based. As to conditions: HCT-116, 72 h. (In general: Formazan colour is commonly taken as a measure of viable cells.)
The target in assay [2] is T1, DNA topoisomerase 1 (Homo sapiens) (UniProt P11387).
T1 sequence (whole entry): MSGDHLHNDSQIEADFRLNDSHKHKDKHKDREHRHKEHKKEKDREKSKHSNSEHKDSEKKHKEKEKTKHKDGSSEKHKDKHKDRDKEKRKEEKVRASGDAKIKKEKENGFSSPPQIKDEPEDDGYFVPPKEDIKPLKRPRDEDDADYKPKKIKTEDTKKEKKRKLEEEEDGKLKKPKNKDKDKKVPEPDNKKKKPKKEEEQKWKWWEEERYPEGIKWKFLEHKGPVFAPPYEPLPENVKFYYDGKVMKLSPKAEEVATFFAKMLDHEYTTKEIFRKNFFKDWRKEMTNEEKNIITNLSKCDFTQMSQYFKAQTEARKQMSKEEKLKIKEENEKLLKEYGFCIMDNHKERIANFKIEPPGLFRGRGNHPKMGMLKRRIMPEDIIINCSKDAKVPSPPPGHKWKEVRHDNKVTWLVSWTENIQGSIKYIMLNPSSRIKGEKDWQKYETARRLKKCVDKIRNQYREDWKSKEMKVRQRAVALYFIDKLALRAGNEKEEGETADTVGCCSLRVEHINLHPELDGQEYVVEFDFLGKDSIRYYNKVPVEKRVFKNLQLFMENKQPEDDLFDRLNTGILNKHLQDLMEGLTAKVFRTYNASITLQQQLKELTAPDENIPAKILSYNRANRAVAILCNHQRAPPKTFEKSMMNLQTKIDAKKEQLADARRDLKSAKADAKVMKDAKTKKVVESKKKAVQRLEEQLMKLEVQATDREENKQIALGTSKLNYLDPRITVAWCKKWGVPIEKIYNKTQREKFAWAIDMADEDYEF
The assay can be described thus: Inhibition of topoisomerase 1 (unknown origin) assessed as relaxation of supercoiled plasmid pBR322 DNA at 10 uM incubated for 45 mins by ethidium bromide staining based agarose gel electrophoresis.

Assay [3] concerns the target Prostaglandin G/H synthase 2 (Homo sapiens) (UniProt P35354). The assay is described as follows: Inhibition of COX-2 (unknown origin) at 30 uM.
Another assay has as its system HT-29. The assay is described as follows: Antitumor activity against human HT-29 cells assessed as inhibition of cell proliferation incubated for 72 hrs by MTT assay. In kind it is functional, cell-based. As to conditions: HT-29, 72 h.
The test system of another assay is LoVo. The assay can be described thus: Antitumor activity against human LoVo cells assessed as inhibition of cell proliferation incubated for 72 hrs by MTT assay. In kind it is functional, cell-based.
The subject of a further assay is SW480. The assay is described as follows: Antitumor activity against human SW480 cells assessed as inhibition of cell proliferation incubated for 72 hrs by MTT assay. In kind it is functional, cell-based. As to conditions: SW480, 72 h.
The subject of the next assay is RKO. The assay is described as follows: Antitumor activity against human RKO cells assessed as inhibition of cell proliferation incubated for 72 hrs by MTT assay. In kind it is functional, cell-based.
Assay [4] addresses T1, DNA topoisomerase 1 (Homo sapiens). The assay can be described thus: Inhibition of topoisomerase 1 (unknown origin) assessed as relaxation of supercoiled plasmid pBR322 DNA at 1 uM incubated for 45 mins by ethidium bromide staining based agarose gel electrophoresis.

The structures appear in SMILES notation.

Sequence of Prostaglandin G/H synthase 2 (Homo sapiens) (P35354 whole entry, looked up): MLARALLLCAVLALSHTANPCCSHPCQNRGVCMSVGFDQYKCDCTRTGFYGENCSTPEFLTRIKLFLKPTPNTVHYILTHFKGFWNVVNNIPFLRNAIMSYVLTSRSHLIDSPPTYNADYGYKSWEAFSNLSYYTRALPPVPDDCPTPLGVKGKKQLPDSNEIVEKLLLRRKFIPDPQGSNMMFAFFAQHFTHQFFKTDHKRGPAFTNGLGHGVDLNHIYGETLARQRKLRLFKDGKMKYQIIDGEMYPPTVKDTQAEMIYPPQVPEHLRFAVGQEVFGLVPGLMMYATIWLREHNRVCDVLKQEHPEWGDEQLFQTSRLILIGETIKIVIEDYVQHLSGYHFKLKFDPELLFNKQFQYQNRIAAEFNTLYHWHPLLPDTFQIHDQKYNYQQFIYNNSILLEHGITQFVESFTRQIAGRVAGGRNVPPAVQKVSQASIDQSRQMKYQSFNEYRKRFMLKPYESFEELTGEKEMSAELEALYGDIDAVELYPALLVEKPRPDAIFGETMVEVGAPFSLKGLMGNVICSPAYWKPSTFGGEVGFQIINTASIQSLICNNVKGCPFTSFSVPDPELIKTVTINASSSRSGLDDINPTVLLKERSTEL

For orientation: inhibition means the percentage by which the read-out fell short of the control. The IC50 is the concentration that gives 50% inhibition. Regarding `Cc1c(Cl)cccc1Nc1ccccc1C(=O)Nc1ccc(N2CCN(C(C)C)CC2)cc1`, the inhibition in [1] stood at 30.1%; in assay [2] it was 54.6%; in assay [3], 83.7%; in [4], 37.5%. For the same compound, the IC50 with HCT-116 stood at 12 µM; with HT-29, 2.97 µM; with LoVo, 8.29 µM; with SW480 it was 10.3 µM; in the assay with RKO, 10.8 µM.
As to `CC(=O)N1CCN(c2ccc(NC(=O)c3ccccc3Nc3cccc(Cl)c3C)cc2)CC1`, the inhibition in assay [1] was found to be 37.6%; in [2], 29%; in assay [3] it was 60.3%. The IC50 with HCT-116, with HT-29, with LoVo, in the assay on SW480 and in the assay with RKO was greater than 30 µM throughout.
As to `Cc1c(Cl)cccc1Nc1ccccc1C(=O)Nc1ccc(OCCO)cc1`, the inhibition is 22.6% in [1], 46.2% in assay [2] and 47.9% in assay [3]. In addition, the IC50 is 9.65 µM with HCT-116; 6.83 µM in the assay with HT-29; 24.7 µM in the assay with LoVo; greater than 30 µM in the assay with SW480; 16.7 µM in the assay with RKO.
`Cc1c(Cl)cccc1Nc1ccccc1C(=O)Nc1ccc(N2CCOCC2)cc1`: the inhibition in [1] is 41.6%; in assay [2] it was 14.5%; in [3] it was 42.9%. The IC50 in the assay with HCT-116 is greater than 30 µM; in the assay on HT-29, 6.4 µM; with LoVo, greater than 30 µM; in the assay on SW480 it was greater than 30 µM; in the assay on RKO it was greater than 30 µM.
As for `COCCOc1ccc(NC(=O)c2ccccc2Nc2cccc(Cl)c2C)cc1`, the inhibition in [1] amounted to 31.7%; in assay [2], 29.3%; in assay [3], 36.5%; in [4] it was 25%. The IC50 in the assay on HCT-116 was greater than 30 µM; in the assay with HT-29, 7.48 µM; with LoVo, 14.7 µM; in the assay with SW480, greater than 30 µM; in the assay on RKO it was 15.4 µM.
For `O=c1[nH]cc(F)c(=O)[nH]1` [FLUOROURACIL], the IC50 was 7.77 µM with HCT-116, 12.2 µM in the assay on HT-29, 8.35 µM with LoVo and greater than 30 µM in the assay with SW480.
For the compound `Cc1c(Cl)cccc1Nc1ccccc1C(=O)Nc1ccc(N2CCN(C)CC2)cc1`, the inhibition came out at 54.4% in [1], 67.8% in [2], 100% in [3] and 25.4% in assay [4]. The IC50 stood at 7.58 µM in the assay with HCT-116; 2.09 µM in the assay with HT-29; 5 µM in the assay on LoVo; 11.3 µM in the assay with SW480; 6.61 µM in the assay on RKO.
With `CCN1CCN(c2ccc(NC(=O)c3ccccc3Nc3cccc(Cl)c3C)cc2)CC1`, the values for the inhibition in assay [1], in assay [2] and in [3] were 37.1%, 71.9% and 100%, respectively. In addition, the IC50 was 11.5 µM in the assay on HCT-116; 2.99 µM with HT-29; 9.51 µM with LoVo; 15.8 µM in the assay on SW480; 10 µM in the assay with RKO.
On to `Cc1c(Cl)cccc1Nc1ccccc1C(=O)Nc1ccc(OCCN)cc1`, for which the inhibition in assay [1] came out at 28.7%; in assay [2], 63.8%; in assay [3], 43.2%; in [4], 41.3%. Also, the IC50 in the assay on HCT-116 was 6.41 µM; with HT-29, 12 µM; with LoVo it was 12.9 µM; with SW480, 25.3 µM; in the assay with RKO, 9.22 µM.
Take `Cc1c(Cl)cccc1Nc1ccccc1C(=O)Nc1ccc(OC(=O)CO)cc1`: the values for the inhibition in [1], in assay [2] and in assay [3] were 24.9%, 45.1% and 97.9%, respectively. In addition, the IC50 in the assay on HCT-116 was 13.5 µM; with HT-29, 13.6 µM; with LoVo it was greater than 30 µM; in the assay with SW480, greater than 30 µM; with RKO, 14.1 µM.
For the compound `CCCN1CCN(c2ccc(NC(=O)c3ccccc3Nc3cccc(Cl)c3C)cc2)CC1`, the inhibition in [1] turned out to be 36.5%; in assay [2], 63.1%; in assay [3], 81%. For the same compound, the IC50 with HCT-116 came out at 13.4 µM; in the assay on HT-29, 6.35 µM; with LoVo, 13.5 µM; with SW480, 16.9 µM; with RKO, 10.1 µM.
As for `COCC(=O)Oc1ccc(NC(=O)c2ccccc2Nc2cccc(Cl)c2C)cc1`, the figures for the inhibition in assay [1], in [2] and in [3] were 25.2%, 16.6% and 47.7%, respectively. The 50% inhibitory concentration (IC50) in the assay with HCT-116 was 12.6 µM; with HT-29, 18.7 µM; with LoVo, greater than 30 µM; with SW480 it was greater than 30 µM; in the assay with RKO, 14 µM.
For `Cc1c(Cl)cccc1Nc1ccccc1C(=O)Nc1ccc(N2CCN(S(C)(=O)=O)CC2)cc1`, the inhibition stood at 24.5% in assay [1], 19.7% in [2], 34.2% in assay [3] and 19.5% in assay [4]. For the same compound, the IC50 in the assay on HCT-116, in the assay with HT-29, with LoVo, with SW480 and in the assay with RKO was greater than 30 µM throughout.
For `Cc1c(Cl)cccc1Nc1ccccc1C(=O)Nc1ccc(N2CCN(C(=O)OC(C)(C)C)CC2)cc1`, the inhibition came to 18.9% in assay [1], 20.4% in [2] and 41.9% in assay [3]. For the same compound, the IC50 with HCT-116 was greater than 30 µM; in the assay with HT-29, 11.9 µM; in the assay with LoVo, greater than 30 µM; with SW480, greater than 30 µM; with RKO, greater than 30 µM.
On to `CCCCN1CCN(c2ccc(NC(=O)c3ccccc3Nc3cccc(Cl)c3C)cc2)CC1`, for which the inhibition amounted to 42.2% in assay [1], 53.2% in assay [2], 58.3% in [3] and 27.6% in assay [4]. For the same compound, the IC50 was 13.2 µM in the assay on HCT-116; 9.83 µM in the assay on HT-29; greater than 30 µM in the assay on LoVo; 18.3 µM with SW480; 15.2 µM with RKO.
For `Cc1c(Cl)cccc1Nc1ccccc1C(=O)Nc1ccc(C(N)=O)cc1`, the IC50 is 17.5 µM in the assay on HCT-116; 26.1 µM in the assay on HT-29; 22.8 µM in the assay on LoVo; greater than 30 µM in the assay with SW480; greater than 30 µM with RKO. The inhibition in assay [2] came out at 19.6%; in assay [3], 3.53%.
Regarding `Cc1c(Cl)cccc1Nc1ccccc1C(=O)Nc1ccc(N2CCN(c3ccccc3)CC2)cc1`, the inhibition in assay [1] is 27.6%; in assay [2] it was 13.9%; in assay [3], 37.8%; in assay [4] it was 12.6%. Also, the 50% inhibitory concentration (IC50) with HCT-116, in the assay on HT-29, in the assay on LoVo, with SW480 and in the assay on RKO was greater than 30 µM throughout.
Consider `Cc1c(Cl)cccc1Nc1ccccc1C(=O)Nc1ccc(NCCO)cc1`, for which the inhibition in assay [1] stood at 69%; in [2], 40.9%; in assay [3] it was 100%. The IC50 was 13.9 µM in the assay on HCT-116; 12.9 µM in the assay with HT-29; greater than 30 µM in the assay with LoVo; greater than 30 µM in the assay on SW480; 29 µM in the assay with RKO.
Take `Cc1c(Cl)cccc1Nc1ccccc1C(=O)Nc1ccc(S(N)(=O)=O)cc1`: the inhibition is 42% in assay [1], 24.4% in [2], 71.3% in assay [3] and 19.8% in assay [4]. The IC50 in the assay on HCT-116 amounted to 7.7 µM; in the assay on HT-29, 28.8 µM; with LoVo, 13.3 µM; in the assay on SW480 it was 14.7 µM; in the assay on RKO, 13.7 µM.
